Measured values taken from patent publication US20250082765A1, “MOLECULES AS ANTICANCER AGENTS FOR TARGETED TREATMENT OF BREAST AND PROSTATE CANCER” (priority 2021, published 2025).

Key:
in vivo = conditions: albino, mouse, intravenous
Description: (§1) The route of administration incorporated for ester of citric acid with capecitabine and estrogen and ester of citric acid with capecitabine and dihydrotestosterone is through intravenous (IV) bolus.
(§2) The biodistribution analysis was carried out for capecitabine in plasma. […] The biodistribution analysis was carried out in breast tissue for females and in prostate gland for males along with several other organs including blood, liver, lungs and spleen.
(§3) The biodistribution analysis was carried out in three groups of albino mice. The female albino mice of age 7-8 weeks and weight 19g-35g were analyzed for the distribution of capecitabine in breast tissue. The male albino mice of age 7-8 weeks and weight 20g-30g were analyzed for the distribution of capecitabine in prostate gland. The study groups comprised of 3 groups including group 1, group 2 and group 3. The study group 1 comprised 6 mice receiving normal control, study group 2 comprised 6 mice receiving pure drug solution and study group 3 comprised 6 mice receiving molecule of formula (I) anticancer drug.
(§4) The analysis of capecitabine in plasma was initiated by liquid-liquid extraction using ethyl acetate. The extraction was carried out on ethylene bridged hybrid (BEH) C18 (100×2.1 mm, 1.7 μm) column. An isocratic flow rate of 0.5 ml/min of acetonitrile (0.1%) and 0.002M ammonium acetate as mobile phase was incorporated. Mass spectrometry analysis was carried out in multiple reaction monitoring modes. The precursor to product ion transitions with mass to ion (m/z) ratio of 360.04 to 244.08 was found for capecitabine. […] The biodistribution data for capecitabine was obtained for concentrations ranging from 5 ng/ml and 40 ng/ml.
(§5) The biodistribution of capecitabine was also analyzed for several other organs such as blood, liver, lungs and the spleen. […] The biodistribution of capecitabine was analyzed at time intervals of 0.5 hours, 1 hour and 2 hours. The biodistribution data was recorded for 6 mice.

[1] = Biodistribution analysis of capecitabine in other organs (blood, liver, lungs, spleen) of mice; conditions: later hours (1 hour, 2 hours)
Description: as §1, §2, §3, §4, §5

Work on `CCCCCOC(=O)Nc1nc(=O)n([C@@H]2O[C@H](C)[C@@H](O)[C@H]2O)cc1F` [capecitabine] yielded a concentration at 0.5 h (in vivo; liver) of 0.013 µg/mL, a concentration at 0.5 h (in vivo; lungs) of 0.0125 µg/mL and a concentration at 0.5 h (in vivo; spleen) of 0.0121 µg/mL. For the same molecule, the concentration at 0.5 h (in vivo; whole blood) was 0.0136 µg/mL, the “biodistribution of capecitabine in blood” value [1] was “negligible” and the “biodistribution of capecitabine in liver” value [1] was “negligible”. The “biodistribution of capecitabine in lungs” value [1] was “negligible” and the “biodistribution of capecitabine in spleen” value [1] was “negligible”.
